# Entries after “also recorded” stand apart in the source; their conditions may differ.
# B1: DP-107 (peptide)
# peptide: Ac-NNLLRAIEAQQHLLQLTVWGIKQLQARILAVERYLKDQ-NH2
# notes: Synthetic peptide; also called peptide DP-107
# What was measured:
# HIV-1LAI virus = test: Peptide blockade of HIV-1 induced cell-cell fusion (syncytia formation; Molt4 cells co-cultivated with chronically infected CEM cells); assay type: cell-based; design: Anti-fusogenic activity (in words): dose or concentration left out as unconfirmed; conditions: for Fusion: quantity of compound required for 90% reduction in number of syncytia: control = 90 syncytia; for No. Syncytia/well: Table 3, ctrl cells only = 85; for Inhibitory / anti-viral / biological activity (in words): cell fusion assay
# Description: The initial screen for antiviral activity of the peptides shown in FIG. 1 was for blockade of syncytium formation induced by overnight co-cultivation of uninfected Molt4 cells with chronically infected (HIV-1IIIB) CEM cells.
# Approximately 7×10^4 Molt cells were incubated with 1×10^4 CEM cells chronically infected with the HIV-1LAI virus in 96 well plates (one-half area cluster plates;Costar. Cambridge, Mass.) in a final volume of […] culture media in accordance with known techniques (T. Matthews et al., Proc. Natl. Acad. Sci. U.S.A. 84, 5424 (1987)). Peptide inhibitors were added in a volume of […] and the cell mixtures were incubated for 24 hr at 37° C. At that time point, multinucleated giant cells were estimated by microscopic examination at a 40× magnification which allowed visualization of the entire well in a single field.
# HIV-1LAI = test: Peptide inhibition of infection by cell-free virus (neutralization assay; AA5 cells, RT activity readout); assay type: cell-based
# Description: Cell cultures were maintained in 96-well microtiter plates for 8 days by addition of fresh medium (but no further addition of peptides) every other day. On the eighth day post-infection, supernatant was tested for reverse transcriptase activity as evidence of successful infection.
# The micro RT assay was adapted from Goff et al. (J. Virol. 38, 239 (1981)) and Willey et al. (J. Virol. 62, 139 (1988)). Supernatants from virus/cell cultures are made 1% in Triton-X100. A […] sample of supernatant was added to 50 ml of RT cocktail in a 96 well U bottom microtiter plate and the samples incubated at […] for 90 min. The cocktail contained 75 mM KCl, 2 mM dithiothreitol, 5 mm Mgcl2l 5 mg/ml poly A (Pharmacia cat. No. 27-4110-01), 0.25 units/ml oligo dT (Pharmacia cat. No. 27-7858-01), 0.05% NP40, 50 mM Tris-HC1, pH 7.8, 0.5 mM non-radioactive dTTP, and 10 mCi/ml ^32p-dTTP (Amersham cat. No. PB.10167). After the incubation period, 40 ml of reaction mixture was applied to a Schleicher and Schuell NA45 membrane (or DE81 paper) saturated in 2×SSC buffer (0.3M NaCl and […]) held in a Schleicher and Schuell Minifold over one sheet of GB003 filter paper. Each well of the minifold was washed four times with […] 2×SSC. The membrane was removed from the minifold and washed 2 more times in a pyrex dish with an excess of 2×SSC. Finally the membrane was drained on absorbent paper, placed on Whatman #3 paper, covered with saran wrap, and exposed to film overnight.
# The HIV1LAI virus was obtained from R. Gallo (see M. Popovic et al., Science 224, 497 (1984)) and propagated in CEM cells cultured in RPMI 1640 containing 10-% FCS. Supernatant from the infected CEM cells was passed through a […] and the infectious titer estimated in a microinfectivity assay using the AA5 cell line to support virus replication. For this purpose 25 ml of serially diluted virus was added to 75 ml AA5 cells at 2×10^5/ml in a 96 well microtiter plate. Each virus dilution was tested in triplicate. Cells were cultured for eight days by addition of fresh medium every other day. On day 8 post infection supernatant samples were tested for virus replication as evidenced by RT activity released to the supernatant in accordance with the procedure described above. The TCID50 was calculated according to the Reed and Muench formula in accordance with known techniques. See L. Reed et al., Amer. J. Hygiene 27, 493 (1938) . The titer of the HIV-1LAI stock used for these studies, as measured on the AA5 cell line, was approximately 1×10^7TCID50/ml. The two primary isolates were obtained from PBMCs of two infected donors, one from Brazil (HIV-1Br3) and the other Trinidad (HIV-1Q72775) by co-cultivation with PHA-blasted normal donor PBMCs in RPMI 1640 containing IL2. The infectious titers of the primary virus stocks were estimated by titration onto normal human PHA blasted PBMCs in a 96 well microtiter plate, again using RT activity released to the supernatant as evidence for successful infection. The infectious titer of both of these isolates was estimated to be approximately 1×10^3 TCID100/ml.
# The peptides were next tested for blockade of infection by cell-free virus. The results shown in FIG. 3 are representative of several experiments in which the DP-107, 125, and (CS3) peptides were compared for potency in the blockade of HIVLAI, infection of AA5 cells. Each level of peptide was incubated in triplicate with about 500 TCID50 of virus and cells. After 7 days of culture, cell-free supernatant was tested for the presence of RT activity as a measure of successful infection.
# [1] = Circular dichroism spectra / thermal melt (secondary structure in solution); assay type: physicochemical; conditions: for Conformation by CD spectra (in words): 37° C.
# Description: (A) and 37° C. (B). Concentration dependence of the midpoint of the temperature dependence (Tm) of the CD signal (C). Tm corresponds to the maxima of the first derivative of the CD melt curve. The CD spectra were obtained in […], 150 mM sodium chloride buffer at pH 7.0.
# Circular dichroism spectra were measured in 10 mM sodium phosphate, 150 mM sodium chloride, pH 7.0 buffer at approximately […] using a 1 cm pathlength cell on a Jobin/Yvon Autodichrograph Mark V CD spectrometer. Peptide concentrations were determined from A280 using Edlehoch's method (Biochemistry 6, 1948 (1967)).
# CEM cells = test: Cytotoxic or cytostatic effects on CEM cells grown in presence of peptide; assay type: cell-based; conditions: 50 mg/ml (highest concentration tested), three days, fresh peptide added each day
# [2] = biological target: the molecule itself; test: CD thermal melt, concentration dependence of Tm (self-association)
# [3] = peptide concentration 1.25 ug/ml on IIIB
# [4] = peptide concentration 2.5 ug/ml on IIIB
# [5] = peptide concentration 5 ug/ml on IIIB
# [6] = peptide concentration 10 ug/ml on IIIB
# [7] = peptide concentration 20 ug/ml on IIIB
# [8] = peptide concentration 40 ug/ml on IIIB
# [9] = EXP. 1, peptide concentration 1.5 micrograms/ml, 0 peptide = 89
# [10] = EXP. 1, peptide concentration 3 micrograms/ml, 0 peptide = 89
# [11] = EXP. 1, peptide concentration 6 micrograms/ml, 0 peptide = 89
# [12] = EXP. 1, peptide concentration 12 micrograms/ml, 0 peptide = 89
# [13] = EXP. 1, peptide concentration 25 micrograms/ml, 0 peptide = 89
# [14] = EXP. 1, peptide concentration 50 micrograms/ml, 0 peptide = 89
Molecule,Fusion: quantity of compound required for 90% reduction in number of syncytia (HIV-1LAI virus) [µg/mL],Neutraliz: quantity of compound required for 90% reduction in infectivity (HIV-1LAI) [µg/mL],No. Syncytia/well (HIV-1LAI virus; [3]),No. Syncytia/well (HIV-1LAI virus; [4]),No. Syncytia/well (HIV-1LAI virus; [5]),No. Syncytia/well (HIV-1LAI virus; [6]),No. Syncytia/well (HIV-1LAI virus; [7]),No. Syncytia/well (HIV-1LAI virus; [8]),further results
NNLLRAIEAQQHLLQLTVWGAKQLQARILAVERYLKDQ [DP-140],17,14,–,–,–,–,–,–,–
CGGNNLLRAIEAQQHLLQLTVWGIKQLQARILAVERYLKDQGGC [DP-130],2,<1,47,0,0,0,0,0,–
DP-31: peptide representing an overlapping immunodominant site of gp41 (SEQ ID NO: 5); sequence only in FIG. 1 (H-ERYLKDQQLLGIWGCSCKLICG-OH; cysteine pairing not given here),–,–,–,–,–,–,–,–,Syncytia Number (HIV-1LAI virus; [9]): 75; Syncytia Number (HIV-1LAI virus; [10]): 90; Syncytia Number (HIV-1LAI virus; [11]): 87; Syncytia Number (HIV-1LAI virus; [12]): 78; Syncytia Number (HIV-1LAI virus; [13]): 80; Syncytia Number (HIV-1LAI virus; [14]): 85; Inhibitory / anti-viral / biological activity (in words) (HIV-1LAI virus): failed to show inhibitory activity
QQLLDVVKRQQEMLRLTVWGTKNLQARVTAIEKYLKDQ [DP-118],–,–,74,78,80,77,0,0,–
IEAQQHLLQLTVWGIKQLQARILAVERYLKDQ [DP-123],40,>30,80,69,76,86,55,4,–
NNLLRAIEAQQHLLQLTVWGIKQLQARILAV [DP-127],7,23,87,53,20,0,0,0,–
GIKQLQARILAVERYLKDQQ [DP-122],>40,>30,–,–,–,–,–,73,–
"LQARILAVERYLKDQQQ [DP-116, reference compound]",>40,>30,–,–,–,–,–,77,"Conformation by CD spectra (in words) [1]: random coil conformations; Stable secondary structure by CD (in words) ([1]; even at low temperatures and high concentrations): no evidence for stable secondary structure; Anti-fusogenic activity (in words) (HIV-1LAI virus): no evidence of anti-fusogenic activity; Syncytia Number (HIV-1LAI virus; [9]): 82; Syncytia Number (HIV-1LAI virus; [10]): 89; Syncytia Number (HIV-1LAI virus; [11]): 92; Syncytia Number (HIV-1LAI virus; [12]): 93; Syncytia Number (HIV-1LAI virus; [13]): 82; Syncytia Number (HIV-1LAI virus; [14]): 89; Blockade of HIVLAI infection of AA5 cells (in words) (HIV-1LAI; about 500 TCID50 of virus, RT activity in supernatant, FIG. 3): no hint of anti-viral effect"
CGGNNLLRAIEAQQHLLQLTVWGIKQLQARILAV [DP-136],>40,>30,–,–,–,–,–,–,–
NNLLRAIEAQQHLLQLTVWGIKQLQARILAVERYLKDQGGC [DP-129],<1,<1,0,0,0,0,0,0,–
NNLLRAIEAQQHLLQLTVWGPKQLQARILAVERYLKDQ (Ac-NNLLRAIEAQQHLLQLTVWGPKQLQARILAVERYLKDQ-NH2) [DP-121],>40,>30,–,–,–,–,–,79,"Conformation by CD spectra (in words) [1]: random coil conformations; also recorded: failed to exhibit helix related signals; Syncytia Number (HIV-1LAI virus; EXP. 3, peptide concentration 2.5 micrograms/ml, 0 peptide = 76): 68; Syncytia Number (HIV-1LAI virus; EXP. 3, peptide concentration 5 micrograms/ml, 0 peptide = 76): 60; Syncytia Number (HIV-1LAI virus; EXP. 3, peptide concentration 10 micrograms/ml, 0 peptide = 76): 65; Syncytia Number (HIV-1LAI virus; EXP. 3, peptide concentration 20 micrograms/ml, 0 peptide = 76): 71; Syncytia Number (HIV-1LAI virus; EXP. 3, peptide concentration 40 micrograms/ml, 0 peptide = 76): 69; Inhibitory / anti-viral / biological activity (in words) (HIV-1LAI virus): did not exhibit anti-viral activity; also recorded: no sign of inhibitory activity"
Ac-NNLLRAIEAQQHLLQLTVWGIKQLQARILAVERYLKDQ-NH2 [DP-107],–,–,–,–,–,–,–,–,Viability and growth rate of CEM cells (CEM cells): same viability and growth rate as control cultures
NNLLRAIEAQQHLLQLTVWGSKQLQARILAVERYLKDQ [DP-139],>40,>30,–,–,–,–,–,–,–
B1,–,–,–,–,–,–,–,–,binding result [2]: binds
